Experimental data as given in the supplement of paper PMC10307832.

Tests used:
Test in all cases: relative viability (nuclei count vs DMSO), 5 days (fraction); higher = more cells survive
[1] = compound: CN(C)CC1=CC(=CC=C1)N=C(C2=CC=CC=C2)C3=C(NC4=C3C=CC(=C4)C(=O)N(C)C)O + Nc1ncn([C@H]2C[C@H](O)[C@@H](CO)O2)c(=O)n1 [Decitabine] (partner 2 µM)
Method in brief: (§1)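 Relative viability divides the nuclei count in treated wells by that in vehicle wells. Lung cancer cell lines were seeded in 1536-well plates, dosed by pin tool the next day, and fixed and stained after 5 days in one step with final 0.05% Triton X-100, 1% formaldehyde and 1 ug/ml Hoechst. Dosing was a single drug or a fixed anchor-drug dose plus five library-drug doses (not always all listed) in √10 steps, and values are medians of duplicate plates imaged at 4×.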

[2] = compound: CN(C)CC1=CC(=CC=C1)N=C(C2=CC=CC=C2)C3=C(NC4=C3C=CC(=C4)C(=O)N(C)C)O + Cc1nc(Nc2ncc(C(=O)Nc3c(C)cccc3Cl)s2)cc(N2CCN(CCO)CC2)n1 [Dasatinib] (partner 0.075 µM)
Method in brief: as §1

[3] = compound: CN(C)CC1=CC(=CC=C1)N=C(C2=CC=CC=C2)C3=C(NC4=C3C=CC(=C4)C(=O)N(C)C)O + COc1cc2c(Oc3ccc(NC(=O)C4(C(=O)Nc5ccc(F)cc5)CC4)cc3F)ccnc2cc1OCCCN1CCOCC1 [Foretinib] (partner 0.25 µM)
Method in brief: as §1

[4] = compound: CN(C)CC1=CC(=CC=C1)N=C(C2=CC=CC=C2)C3=C(NC4=C3C=CC(=C4)C(=O)N(C)C)O + CCNC(=O)c1noc(-c2cc(C(C)C)c(O)cc2O)c1-c1ccc(CN2CCOCC2)cc1 [Luminespib] (partner 0.01 µM)
Method in brief: as §1

Row | Cell Line | relative viability ([1]; first compound 0.08 µM) | relative viability ([1]; first compound 0.253 µM) | relative viability ([1]; first compound 0.8 µM) | relative viability ([1]; first compound 2.53 µM) | relative viability ([1]; first compound 8 µM) | relative viability ([2]; first compound 0.08 µM) | relative viability ([2]; first compound 0.253 µM) | relative viability ([2]; first compound 0.8 µM) | relative viability ([2]; first compound 2.53 µM) | relative viability ([2]; first compound 8 µM) | relative viability ([3]; first compound 0.08 µM) | relative viability ([3]; first compound 0.253 µM) | relative viability ([3]; first compound 0.8 µM) | relative viability ([3]; first compound 2.53 µM) | relative viability ([3]; first compound 8 µM) | relative viability ([4]; first compound 0.08 µM) | relative viability ([4]; first compound 0.253 µM) | relative viability ([4]; first compound 0.8 µM) | relative viability ([4]; first compound 2.53 µM) | relative viability ([4]; first compound 8 µM)
1 | NCI-H358 | 0.198 | 0.214 | 0.212 | 0.214 | 0.236 | 0.171 | 0.158 | 0.138 | 0.163 | 0.183 | 0.696 | 0.808 | 0.515 | 0.585 | 0.506 | 0.304 | 0.277 | 0.331 | 0.414 | 0.276
2 | NCI-H441 | 0.248 | 0.282 | 0.282 | 0.237 | 0.221 | 0.521 | 0.68 | 0.529 | 0.582 | 0.505 | 1.11 | 1.01 | 1.24 | 1.17 | 0.873 | 0.303 | 0.304 | 0.364 | 0.381 | 0.354
3 | NCI-H460 | 0.449 | 0.491 | 0.503 | 0.456 | 0.471 | 0.669 | 0.558 | 0.736 | 0.387 | 0.398 | 0.995 | 1.07 | 0.994 | 0.928 | 1.04 | 0.0333 | 0.0284 | 0.0254 | 0.0282 | 0.0318
4 | NCI-H520 | 0.489 | 0.528 | 0.481 | 0.5 | 0.511 | 0.189 | 0.197 | 0.183 | 0.162 | 0.165 | 0.799 | 0.789 | 0.695 | 0.712 | 0.649 | 0.218 | 0.197 | 0.239 | 0.221 | 0.236
5 | NCI-H596 | 0.919 | 1.05 | 0.967 | 1.03 | 0.979 | 0.575 | 0.648 | 0.628 | 0.618 | 0.602 | 0.593 | 0.971 | 0.845 | 0.883 | 0.807 | 0.974 | 1.24 | 0.993 | 1.14 | 0.551
6 | NCI-H647 | 0.414 | 0.477 | 0.423 | 0.438 | 0.488 | 0.201 | 0.235 | 0.173 | 0.195 | 0.111 | 1.26 | 1.1 | 1.12 | 1.15 | 1 | 0.103 | 0.133 | 0.227 | 0.199 | 0.184
7 | NCI-H650 | 0.364 | 0.408 | 0.335 | 0.33 | 0.371 | 0.521 | 0.487 | 0.447 | 0.461 | 0.447 | 1.16 | 1.08 | 0.988 | 0.846 | 1.07 | 0.843 | 0.777 | 0.872 | 0.667 | 0.861
8 | NCI-H661 | 0.537 | 0.55 | 0.477 | 0.554 | 0.584 | 0.979 | 0.747 | 0.679 | 0.8 | 0.856 | 0.996 | 0.963 | 0.957 | 0.966 | 0.883 | 0.922 | 0.904 | 0.964 | 0.865 | 0.811
9 | NCI-H727 | – | 0.817 | 0.841 | 1.09 | 0.864 | 0.357 | 0.374 | 0.382 | 0.54 | 0.509 | 0.896 | 0.877 | 0.804 | 0.942 | 0.664 | 0.245 | 0.377 | 0.296 | 0.543 | 0.354
10 | NCI-H838 | 0.485 | 0.507 | 0.427 | 0.458 | 0.413 | 0.304 | 0.304 | 0.247 | 0.281 | 0.284 | 1.13 | 0.969 | 1 | 0.888 | 0.938 | 0.386 | 0.355 | 0.254 | 0.331 | 0.341
11 | NCI-H1355 | 0.376 | 0.359 | 0.331 | 0.342 | 0.365 | 0.776 | 0.776 | 0.538 | 0.82 | 0.737 | 0.684 | 1.05 | 0.922 | 0.919 | 1.02 | 0.687 | 0.713 | 0.735 | 0.764 | 0.66
12 | NCI-H1395 | 0.752 | 0.757 | 0.759 | 0.727 | 0.758 | 0.402 | 0.373 | 0.455 | 0.433 | 0.399 | 0.97 | 1.01 | 1.04 | 0.854 | 0.92 | 0.594 | 0.778 | 0.672 | 0.653 | 0.86
13 | NCI-H1437 | 0.559 | 0.609 | 0.576 | 0.577 | 0.685 | 0.393 | 0.402 | 0.392 | 0.336 | 0.416 | 1.3 | 1.22 | 1.35 | 1.27 | 1.33 | 1.12 | 1.14 | 1.2 | 1.06 | 1.2
14 | NCI-H1650 | 0.471 | 0.376 | 0.361 | 0.485 | 0.452 | 0.286 | 0.383 | 0.351 | 0.376 | 0.335 | 1.17 | 1.12 | 1.08 | 1.05 | 0.977 | 0.194 | 0.202 | 0.227 | 0.199 | 0.186
15 | NCI-H1651 | 0.665 | 0.622 | 0.616 | 0.423 | 0.643 | 0.414 | 0.459 | 0.443 | 0.284 | 0.386 | 0.865 | 0.777 | 0.87 | 0.735 | 0.816 | 0.892 | 0.782 | 0.894 | 0.639 | 0.87
16 | NCI-H1666 | 0.694 | 0.715 | 0.68 | 0.769 | 0.744 | 0.826 | 0.836 | 0.907 | 0.747 | 0.843 | 1.03 | 1.01 | 1 | 1 | 1.11 | 1.02 | 1.02 | 1.08 | 1.01 | 1.02
